Measurements reported in patent US20150118231A1, “APOE4 ANTIBODIES FOR TREATMENT OF NEURODEGENERATIVE CONDITIONS” (RAMOT AT TEL-AVIV UNIVERSITY LTD., priority 2012, published 2015).

Assays:
apoE3 and apoE4 mice [1] = test: Bexarotene by gavage: object recognition test; settings: 100 mg per kg per day by gavage; apoE4 mice prefer the novel object, similarly to apoE3 mice
apoE3 and apoE4 mice [2] = test: Bexarotene by gavage: fear conditioning test; assay type: in vivo; settings: 100 mg per kg per day by gavage; mild electric shock
apoE3 and apoE4 mice [3] = test: Bexarotene by gavage: Morris swim test; assay type: in vivo; settings: 100 mg per kg per day by gavage
From the text: Next, the mice were further investigated following removal of the platform from the water arena.

mouse model of AD = settings: oral administration; cited from earlier work

For `C=C(c1ccc(C(=O)O)cc1)c1cc2c(cc1C)C(C)(C)CCC2(C)C` [Bexarotene], which “object recognition impairment in apoE4 mice (time spent near the novel object)” value (apoE3 and apoE4 mice [1]) is on record?
The value was “reversed”.

And the “fear conditioning, freezing time: difference between apoE3 and apoE4 mice” value (apoE3 and apoE4 mice [2])?
The value was “abolished”.

What about the “Morris swim test, time to reach the platform, apoE4 mice” value (apoE3 and apoE4 mice [3]; days 1-4, rendered similar to apoE3 mice) of the same compound?
The value was “improves”.

What about the “Morris swim test, time searching for the missing platform: difference between apoE3 and apoE4 mice” value (apoE3 and apoE4 mice [3]; platform removed) of the same compound?
The value was “abolished”.

And the apoE synthesis (mouse model of AD)?
The apoE synthesis was “enhanced”.

And the “clearance of soluble Aβ” value (mouse model of AD)?
Its value is “within hours”.

And the cognitive deficits (mouse model of AD)?
The cognitive deficits was “rapid reversal”.

And the neural circuit function (mouse model of AD)?
Its neural circuit function is “improved”.

And the “time to reduced Aβ plaque area” value (mouse model of AD)?
The value was ≤ 72 h.
